Laboratory results as given in patent publication US20260224460A1, “A PERSONAL CARE COMPOSITION” (Conopco, Inc., d/b/a UNILEVER, priority 2023, published 2026).

Columns and labels:
[1] = tested on: Collagen1 gene expression (COL1A1) in WS1 cells; experiment: Collagen1 (COL1A1) gene expression by real time PCR in WS1 human dermal fibroblasts; format: cell-based; settings: Table 1, 24 hours treatment, actives in wt %, fold change vs untreated control (1.0), normalized to GAPDH, delta delta Ct
Experimental: Experiments were carried out to study gene expression of Collagen1 with actives as shown in Table-1 individually and in combination and the data is 12ummarized therein. The methodology used to measure the gene expression is given below:
WS1 cells (human dermal fibroblasts) were grown and maintained in high glucose DMEM (HIMEDIA cat No AL219A) supplemented with 0.03 mM Calcium chloride, 1 mM sodium pyruvate and 10% FBS (Fetal Bovine Serum) at 37° C. with 5% CO2. 80% confluent cells were trypsinized and plated in 24 well plate at a density of 50,000 cells/well. The cells were incubated at 37° C. with 5% CO2 for 24 hours. Post incubation, the cells were treated with arginine (0.005%) and varying concentration of pimelic acid, dimethyl pimelate, suberic acid. Azelaic acid (0.0001, 0.001, 0.005%). 24 hours after treatment the cells were harvested for RNA extraction. RNA was extracted using Qiagen RNA extraction kit (Cat No: 74004) as per the instructions given in the kit. After extraction of RNA, cDNA synthesis was done using iscript cDNA synthesis kit (Biorad Cat no: 1708890). […] of RNA was used for cDNA synthesis. cDNA template synthesized was used for gene expression studies.
Quantification of collagen gene expression was carried out using real time PCR. […] of cDNA was used for setting up the reaction. The PCR reaction mix had […] each of forward and reverse primer, […] of PCR master mix (Sigma Cat No: KCQS00). Amplification was carried out at 95° C. for 30 seconds as the first step, followed by 40 cycles of qRT-PCR at 95° C. for 5 seconds, and at 60° C. for 20 seconds. mRNA expression was measured in triplicate and was normalized to GAPDH (glyceraldehyde 3-phosphate dehydrogenase) expression levels. The relative quantification was done using delta delta Ct method. The primers used in the study are COL1A1 forward primer 5′-[…]-3′, COL1A1 reverse primer 5′-[…]-3′, GAPDH forward primer 5′-[…]-3′, reverse primer 5′-[…]-3′. The relative quantification of gene expression was done after normalization using house keeping gene (GAPDH) and comparing with untreated control.
The fold change of gene ‘expression obtaine’ from cells treated with’ combination of test actives were compared with the gene expression obtained from cells treated with individual ingredients.

[2] = tested on: Collagen1 gene expression (COL1A1) in WS1 cells; experiment: as above; format: cell-based; settings: 24 hours treatment, actives in wt %, fold change vs untreated control (1.0), normalized to GAPDH
[3] = Table 3 (additional weight ratios 2:1, 4:1, 25:1)

SMILES | Gene expression (Collagen1) [1] | Gene expression (Collagen1) ([2]; Table 2 (lysine series)) | Gene expression (Collagen1) [2, 3]
N=C(N)NCCCC(N)C(=O)O (centres unmarked) [Example A, Arginine] | 1.9 |  | 
O=C(O)CCCCCC(=O)O [Example B3, Pimelic acid] | 3.2 |  | 
O=C(O)CCCCCCC(=O)O [Example J2, Suberic acid] |  | 2.8 | 
O=C(O)CCCCCC(=O)O [Example M1, Pimelic acid] |  |  | 3.0
O=C(O)CCCCCC(=O)O [Example G2, Pimelic acid] |  | 2.4 | 
N=C(N)NCCCC(N)C(=O)O (centres unmarked) [Example L1, Arginine] |  |  | 1.5
O=C(O)CCCCCCCC(=O)O [Example E2, Azeleic acid] | 1.6 |  | 
O=C(O)CCCCCCCC(=O)O [Example K2, Azeleic acid] |  | 1.6 | 
O=C(O)CCCCCCCC(=O)O [Example P2, Azelaic acid] |  |  | 2.4
O=C(O)CCCCCC(=O)O [Example G1, Pimelic acid] |  | 1.1 | 
O=C(O)CCCCCC(=O)O [Example B1, Pimelic acid] | 1.1 |  | 
O=C(O)CCCCCCC(=O)O [Example J3, Suberic acid] |  | 1.4 | 
O=C(O)CCCCCC(=O)O [Example B2, Pimelic acid] | 2.8 |  | 
O=C(O)CCCCCCCC(=O)O [Example K3, Azeleic acid] |  | 2.0 | 
O=C(O)CCCCCCC(=O)O [Example O3, Suberic acid] |  |  | 2.5
COC(=O)CCCCCC(=O)OC [Example C3, Dimethyl pimelate] | 3.8 |  | 
O=C(O)CCCCCCC(=O)O [Example O1, Suberic acid] |  |  | 2.7
COC(=O)CCCCCC(=O)OC [Example N1, Dimethyl pimelate] |  |  | 2.2
COC(=O)CCCCCC(=O)OC [Example N2, Dimethyl pimelate] |  |  | 3.5
O=C(O)CCCCCCC(=O)O [Example D1, Suberic acid] | 1.6 |  | 
O=C(O)CCCCCCCC(=O)O [Example E3, Azeleic acid] | 1.9 |  | 

SMILES | Gene expression (Collagen1) [1] | Gene expression (Collagen1) ([2]; Table 2 (lysine series)) | Gene expression (Collagen1) [2, 3]
O=C(O)CCCCCC(=O)O [Example M3, Pimelic acid] |  |  | 2.7
O=C(O)CCCCCCCC(=O)O [Example K1, Azeleic acid] |  | 1.3 | 
O=C(O)CCCCCCC(=O)O [Example O2, Suberic acid] |  |  | 3.7
COC(=O)CCCCCC(=O)OC [Example H3, Dimethyl pimelate] |  | 3.7 | 
O=C(O)CCCCCCCC(=O)O [Example P1, Azelaic acid] |  |  | 1.7
O=C(O)CCCCCCCC(=O)O [Example P3, Azelaic acid] |  |  | 1.6
COC(=O)CCCCCC(=O)OC [Example H1, Dimethyl pimelate] |  | 1.2 | 
O=C(O)CCCCCCC(=O)O [Example D2, Suberic acid] | 2.9 |  | 
N=C(N)NCCCC(N)C(=O)O (centres unmarked) [Example L3, Arginine] |  |  | 4.4
COC(=O)CCCCCC(=O)OC [Example C1, Dimethyl pimelate] | 1.2 |  | 
O=C(O)CCCCCCC(=O)O [Example J1, Suberic acid] |  | 1.7 | 
N=C(N)NCCCC(N)C(=O)O (centres unmarked) [Example L2, Arginine] |  |  | 3.3
O=C(O)CCCCCC(=O)O [Example M2, Pimelic acid] |  |  | 3.9
COC(=O)CCCCCC(=O)OC [Example C2, Dimethyl pimelate] | 2.5 |  | 
COC(=O)CCCCCC(=O)OC [Example N3, Dimethyl pimelate] |  |  | 2.5
NCCCC[C@H](N)C(=O)O [F, Lysine] |  | 0.8 | 
O=C(O)CCCCCC(=O)O [Example G3, Pimelic acid] |  | 3.0 | 
COC(=O)CCCCCC(=O)OC [Example H2, Dimethyl pimelate] |  | 2.4 | 
O=C(O)CCCCCCCC(=O)O [Example E1, Azeleic acid] | 1.4 |  | 
O=C(O)CCCCCCC(=O)O [Example D3, Suberic acid] | 1.3 |  | 
